Measured values as given in patent US10968215B2 (SHANGHAI HAIHE PHARMACEUTICAL CO., LTD., priority 2016, dated 2021).
Like-named read-outs stand apart in the source and are kept apart here.

Tests used:
[1] = biological target: PRC2 complex (EZH2 Y641F/EED/SUZ12/RbAp48/AEBP2) (Homo sapiens (Human), UniProt Q15910, Y641F); test: Activity of a compound to PRC2 complex (EZH2 Y641F), HTRF
[2] = biological target: PRC2 complex (EZH2/EED/SUZ12/RbAp48/AEBP2) (Homo sapiens (Human), UniProt Q15910); test: Activity of a compound to PRC2 complex (EZH2 wild type), ELISA; type: biochemical; details: class symbols
[3] = read-out: IC50 (EZH2_Y641F), EZH2 Y641F PRC2 complex, HTRF, class symbols

Sequence of PRC2 complex (EZH2 Y641F/EED/SUZ12/RbAp48/AEBP2) (Q15910 whole entry Y641F): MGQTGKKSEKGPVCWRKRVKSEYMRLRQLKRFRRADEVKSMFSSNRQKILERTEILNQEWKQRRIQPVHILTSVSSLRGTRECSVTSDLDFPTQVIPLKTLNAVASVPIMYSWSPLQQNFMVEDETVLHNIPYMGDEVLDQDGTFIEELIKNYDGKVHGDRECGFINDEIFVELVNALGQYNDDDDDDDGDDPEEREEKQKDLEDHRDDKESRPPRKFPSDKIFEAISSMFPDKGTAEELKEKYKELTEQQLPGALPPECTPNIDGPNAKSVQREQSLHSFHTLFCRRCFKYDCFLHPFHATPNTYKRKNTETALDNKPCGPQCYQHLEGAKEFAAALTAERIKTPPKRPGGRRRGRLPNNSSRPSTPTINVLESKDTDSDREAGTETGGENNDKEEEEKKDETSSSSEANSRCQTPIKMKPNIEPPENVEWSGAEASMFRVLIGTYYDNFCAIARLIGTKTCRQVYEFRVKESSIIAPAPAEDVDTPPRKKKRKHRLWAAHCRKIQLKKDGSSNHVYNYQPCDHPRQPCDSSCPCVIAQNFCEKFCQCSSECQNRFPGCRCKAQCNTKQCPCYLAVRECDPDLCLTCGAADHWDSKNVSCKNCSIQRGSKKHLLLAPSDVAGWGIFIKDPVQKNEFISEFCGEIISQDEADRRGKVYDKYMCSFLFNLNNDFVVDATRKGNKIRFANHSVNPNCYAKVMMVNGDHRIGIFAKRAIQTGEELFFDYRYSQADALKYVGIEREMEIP
Sequence of PRC2 complex (EZH2 Y641F/EED/SUZ12/RbAp48/AEBP2) (O75530 whole entry partner): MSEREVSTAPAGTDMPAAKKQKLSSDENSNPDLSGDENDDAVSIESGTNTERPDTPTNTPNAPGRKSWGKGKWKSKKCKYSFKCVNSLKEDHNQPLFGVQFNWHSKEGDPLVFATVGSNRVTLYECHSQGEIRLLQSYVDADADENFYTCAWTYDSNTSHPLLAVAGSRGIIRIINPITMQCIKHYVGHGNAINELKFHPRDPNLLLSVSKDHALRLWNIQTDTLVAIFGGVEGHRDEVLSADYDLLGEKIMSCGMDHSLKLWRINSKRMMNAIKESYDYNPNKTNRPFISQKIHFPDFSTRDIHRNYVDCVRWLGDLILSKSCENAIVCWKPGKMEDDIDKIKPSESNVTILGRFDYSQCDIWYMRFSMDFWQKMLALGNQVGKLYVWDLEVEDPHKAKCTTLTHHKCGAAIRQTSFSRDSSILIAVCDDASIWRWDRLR
Sequence of PRC2 complex (EZH2 Y641F/EED/SUZ12/RbAp48/AEBP2) (Q15022 whole entry partner): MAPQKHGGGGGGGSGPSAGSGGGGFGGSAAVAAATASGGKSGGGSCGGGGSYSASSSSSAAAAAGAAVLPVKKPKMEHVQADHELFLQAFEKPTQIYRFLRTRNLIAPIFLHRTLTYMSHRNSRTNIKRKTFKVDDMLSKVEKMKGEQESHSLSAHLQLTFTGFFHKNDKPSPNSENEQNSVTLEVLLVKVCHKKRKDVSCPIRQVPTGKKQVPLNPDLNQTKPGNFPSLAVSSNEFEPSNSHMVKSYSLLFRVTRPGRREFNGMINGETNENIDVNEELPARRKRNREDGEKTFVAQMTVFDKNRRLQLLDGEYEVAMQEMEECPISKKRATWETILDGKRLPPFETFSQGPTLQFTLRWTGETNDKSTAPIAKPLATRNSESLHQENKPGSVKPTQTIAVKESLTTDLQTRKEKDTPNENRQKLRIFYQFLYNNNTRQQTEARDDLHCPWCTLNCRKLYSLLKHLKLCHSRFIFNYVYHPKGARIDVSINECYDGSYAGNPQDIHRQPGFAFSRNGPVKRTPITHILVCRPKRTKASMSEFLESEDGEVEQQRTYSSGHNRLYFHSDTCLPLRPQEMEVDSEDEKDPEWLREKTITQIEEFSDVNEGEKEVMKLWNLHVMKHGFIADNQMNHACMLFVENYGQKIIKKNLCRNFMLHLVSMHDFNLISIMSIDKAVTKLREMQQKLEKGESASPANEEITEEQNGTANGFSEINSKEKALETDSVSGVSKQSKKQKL
Sequence of PRC2 complex (EZH2 Y641F/EED/SUZ12/RbAp48/AEBP2) (Q09028 whole entry partner): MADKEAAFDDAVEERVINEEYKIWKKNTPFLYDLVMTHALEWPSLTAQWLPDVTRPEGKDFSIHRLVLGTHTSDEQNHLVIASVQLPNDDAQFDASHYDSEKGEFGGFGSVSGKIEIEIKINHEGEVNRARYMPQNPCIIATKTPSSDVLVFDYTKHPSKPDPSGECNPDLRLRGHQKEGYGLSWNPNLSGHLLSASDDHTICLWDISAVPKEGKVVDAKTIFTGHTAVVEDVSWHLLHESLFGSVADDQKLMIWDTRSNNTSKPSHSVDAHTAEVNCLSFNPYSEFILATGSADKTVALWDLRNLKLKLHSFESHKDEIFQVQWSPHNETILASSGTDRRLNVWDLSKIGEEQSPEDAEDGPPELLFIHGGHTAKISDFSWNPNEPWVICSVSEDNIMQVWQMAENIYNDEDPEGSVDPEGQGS
Sequence of PRC2 complex (EZH2 Y641F/EED/SUZ12/RbAp48/AEBP2) (Q6ZN18 whole entry partner): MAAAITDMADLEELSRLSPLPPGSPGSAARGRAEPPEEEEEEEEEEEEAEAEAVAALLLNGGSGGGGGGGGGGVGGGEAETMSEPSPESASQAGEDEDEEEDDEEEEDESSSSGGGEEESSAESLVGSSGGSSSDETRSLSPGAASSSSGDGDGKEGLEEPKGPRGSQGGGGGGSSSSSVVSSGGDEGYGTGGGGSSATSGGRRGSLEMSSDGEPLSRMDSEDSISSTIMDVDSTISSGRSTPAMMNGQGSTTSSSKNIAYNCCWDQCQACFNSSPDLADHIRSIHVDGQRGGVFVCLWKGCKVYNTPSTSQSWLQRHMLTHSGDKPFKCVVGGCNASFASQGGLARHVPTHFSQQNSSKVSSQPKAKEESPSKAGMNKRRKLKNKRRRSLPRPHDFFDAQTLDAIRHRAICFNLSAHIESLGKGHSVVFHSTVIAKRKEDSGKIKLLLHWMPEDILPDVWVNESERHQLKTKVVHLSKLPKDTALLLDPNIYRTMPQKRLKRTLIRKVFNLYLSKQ
Sequence of PRC2 complex (EZH2/EED/SUZ12/RbAp48/AEBP2) (Q15910 whole entry): as the sequence (Q15910 whole entry Y641F) above, with F641Y counted along it
Sequence of PRC2 complex (EZH2/EED/SUZ12/RbAp48/AEBP2) (O75530 whole entry partner): as the sequence (O75530 whole entry partner) above
Sequence of PRC2 complex (EZH2/EED/SUZ12/RbAp48/AEBP2) (Q15022 whole entry partner): as the sequence (Q15022 whole entry partner) above
Sequence of PRC2 complex (EZH2/EED/SUZ12/RbAp48/AEBP2) (Q09028 whole entry partner): as the sequence (Q09028 whole entry partner) above
Sequence of PRC2 complex (EZH2/EED/SUZ12/RbAp48/AEBP2) (Q6ZN18 whole entry partner): as the sequence (Q6ZN18 whole entry partner) above

| IC50 [1] | IC50 [2] | IC50 [1, 3] | Compound |
| --- | --- | --- | --- |
| < 100 nM | < 100 nM | – | Cc1cc(C)c(CNC(=O)c2cc3c(-c4ccc(N)nc4)ccn3c(C(C)N3CCN(CC(F)(F)F)CC3)c2C)c(=O)[nH]1 (centres unmarked) [Compound 158, 1-(6-aminopyridin-3-yl)-N-((4,6-dimethyl-2-oxo-1,2-dihydropyridin-3-yl)methyl)-6-methyl-5-(1-(4-(2,2,2-trifluoroethyl)piperazin-1-yl)ethyl)indolizine-7-carboxamide] |
| – | 100 to 1000 nM | 100 to 1000 nM | C#CCOC(C)c1c(C)c(C(=O)NCc2c(C)cc(C)[nH]c2=O)cc2cccn12 (centres unmarked) [Example 4, N-((4,6-dimethyl-2-oxo-1,2-dihydropyridin-3-yl)methyl)-6-methyl-5-(1-(prop-2-yn-1-yloxy)ethyl)indolizine-7-carboxamide] |
| – | < 100 nM | 100 to 1000 nM | Cc1cc(C)c(CNC(=O)c2cc3cccn3c(C(C)c3ccccc3)c2C)c(=O)[nH]1 (centres unmarked) [Example 25, N-((4,6-dimethyl-2-oxo-1,2-dihydropyridin-3-yl)methyl)-6-methyl-5-(1-phenylethyl)indolizine-7-carboxamide] |
| – | 100 to 1000 nM | 100 to 1000 nM | Cc1cc(C)c(CNC(=O)c2cc3cccn3c(C(C)OCc3cccc(F)c3)c2C)c(=O)[nH]1 (centres unmarked) [Example 12] |
| – | < 100 nM | < 100 nM | Cc1cc(C)c(CNC(=O)c2cc3c(-c4ccc(N)nc4)ccn3c([C@H](C)N3CCN(CC(F)(F)F)CC3)c2C)c(=O)[nH]1 (single isomer, unassigned) [Compound 159, (S)-1-(6-aminopyridin-3-yl)-N-((4,6-dimethyl-2-oxo-1,2-dihydropyridin-3-yl)methyl)-6-methyl-5-(1-(4-(2,2,2-trifluoroethyl)piperazin-1-yl)ethyl)indolizine-7-carboxamide or (R) 1-(6-aminopyridin-3-yl)-N-((4,6-dimethyl-2-oxo-1,2-dihydropyridin-3-yl)methyl)-6-methyl-5-(1-(4-(2,2,2-trifluoroethyl)piperazin-1-yl)ethyl)indolizine-7-carboxamide] |
| – | 100 to 1000 nM | 100 to 1000 nM | Cc1cc(C)c(CNC(=O)c2cc3cccn3c(C(C)OCc3c(F)cccc3F)c2C)c(=O)[nH]1 (centres unmarked) [Example 13] |
| – | < 100 nM | – | Cc1cc(C)c(CNC(=O)c2cc3cc(Br)cn3c(N(C)C3CCOCC3)c2C)c(=O)[nH]1 [Example 57] |
| – | 100 to 1000 nM | 100 to 1000 nM | Cc1cc(C)c(CNC(=O)c2cc3cccn3c(C(C)OCc3ccc(F)cc3)c2C)c(=O)[nH]1 (centres unmarked) [Example 10] |
| – | 100 to 1000 nM | 100 to 1000 nM | Cc1cc(C)c(CNC(=O)c2cc3cccn3c(C(C)OCc3ccsc3)c2C)c(=O)[nH]1 (centres unmarked) [Example 19, N-((4,6-dimethyl-2-oxo-1,2-dihydropyridin-3-yl)methyl)-6-methyl-5-(1-(thiophene-3-ylmethoxy)ethyl)indolizine-7-carboxamide] |
| – | 100 to 1000 nM | 100 to 1000 nM | Cc1cc(C)c(CNC(=O)c2cc3cccn3c(C(C)OCc3ccccc3F)c2C)c(=O)[nH]1 (centres unmarked) [Example 11] |
| – | 100 to 1000 nM | 100 to 1000 nM | Cc1cc(C)c(CNC(=O)c2cc3cccn3c(C(C)OCc3ccn(C)n3)c2C)c(=O)[nH]1 (centres unmarked) [Example 20] |
| – | 100 to 1000 nM | < 100 nM | Cc1cc(C)c(CNC(=O)c2cc3cccn3c(C(C)OCc3nccs3)c2C)c(=O)[nH]1 (centres unmarked) [Example 18, N-((4,6-dimethyl-2-oxo-1,2-dihydropyridin-3-yl)methyl)-6-methyl-5-(1-(thiazole-2-ylmethoxy)ethyl)indolizine-7-carboxamide] |
| – | 100 to 1000 nM | 100 to 1000 nM | COc1cccc(COC(C)c2c(C)c(C(=O)NCc3c(C)cc(C)[nH]c3=O)cc3cccn23)c1 (centres unmarked) [Example 14, N-((4,6-dimethyl-2-oxo-1,2-dihydropyridin-3-yl)methyl)-5-(1-((3-methoxybenzyl)oxy)ethyl)-6-methylindolizine-7-carboxamide] |
| – | – | < 100 nM | COc1cc(C)[nH]c(=O)c1CNC(=O)c1cc2c(-c3ccc(N)nc3)ccn2c(C(C)N2CCN(CC(F)(F)F)CC2)c1C (centres unmarked) [Compound 157] |
| < 100 nM | – | – | Cc1cc(=O)c(CNC(=O)c2cc3c(-c4ccc(N)nc4)ccn3c(C(C)N3CCN(CC(F)(F)F)CC3)c2C)c(C)[nH]1 (centres unmarked) [Compound 184, 1-(6-aminopyridin-3-yl)-N-((2,6-dimethyl-4-oxo-1,4-dihydropyridin-3-yl)methyl)-6-methyl-5-(1-(4-(2,2,2-trifluoroethyl)piperazin-1-yl)ethyl)indolizine-7-carboxamide] |
| < 100 nM | – | – | COc1cc(C)[nH]c(=O)c1CNC(=O)c1cc2c(-c3cnc(C)nc3)ccn2c(C(C)N2CCN(CC(F)(F)F)CC2)c1C (centres unmarked) [Compound 196, N-((4-methoxy-6-methyl-2-oxo-1,2-dihydropyridin-3-yl)methyl)-6-methyl-1-(2-methylpyrimidin-5-yl)-5-(1-(4-(2,2,2-trifluoroethyl)piperazin-1-yl)ethyl)indolizine-7-carboxamide] |

| Compound | IC50 [1] | IC50 [2] | IC50 [1, 3] |
| --- | --- | --- | --- |
| Cc1cc(C)c(CNC(=O)c2cc3cccn3c(N(C)C3CCOCC3)c2C)c(=O)[nH]1 [Example 55, N-((4,6-dimethyl-2-oxo-1,2-dihydropyridin-3-yl)methyl)-6-methyl-5-(methyl(tetrahydro-2H-pyran-4-yl)amino)indolizine-7-carboxamide] | – | 100 to 1000 nM | 100 to 1000 nM |
| (S)-1-Chloro-N-((4,6-dimethyl-2-oxo-1,2-dihydropyridin-3-yl)methyl)-6-methyl-5-(1-morphinolinylethyl)pyridazin-7-carboxamide or (R)-1-chloro-N-((4,6-dimethyl-2-oxo-1,2-dihydro)pyridin-3-yl)methyl)-6-methyl-5-(1-morphinolinylethyl)pyridazin-7-carboxamide [Example 28] | – | – | < 100 nM |
| Cc1cc(C)c(CNC(=O)c2cc3cncn3c(N(C)C3CCOCC3)c2C)c(=O)[nH]1 [Example 68, N-((4,6-dimethyl-2-oxo-1,2-dihydropyridin-3-yl)methyl)-6-methyl-5-(methyl(tetrahydro-2H-pyran-4-yl)amino)imidazo[1,5-a]pyridine-7-carboxamide] | < 100 nM | – | – |
